From PMC8273887 (Journal of Medicinal Chemistry, 2021)

Columns and labels:
[1] = tested on: SH-SY5Y cells; assay: Antiapoptotic assay (etoposide-induced cell death, caspase-3/7 activity); format: cell-based, human; conditions: etoposide 10 μM and peptide 10 μM added at the same time, caspase-3/7 activity after 6 h, n ≥ 3 independent experiments
Protocol: (A) Cell death was induced with etoposide (10 μM), and cells were treated with 10 μM of TFF3. Etoposide and TFF3 were added at the same time. Caspase-3/7 activity was measured after 6 h. […] Z-DEVD-FMK (50 μM; caspase-3 inhibitor) was used as the positive control. E: etoposide, E + C3I: etoposide + caspase-3 inhibitor. One-way analysis of variance (ANOVA) followed by Dunnett correction was performed to assess differences between treated cells and etoposide only. *p < 0.05, **p < 0.01.
SH-SY5Y cells were seeded (13–15 × 10^3 cells/well) in 96-well microplates in DMEM with 10% (v/v) fetal calf serum (FCS; Gibco), 2 mM L-glutamine, and 100 units/mL penicillin/streptomycin. The media was replaced with low riboflavin, complete Ham’s F12 medium with 10% (v/v) fetal calf serum, 2 mM L-glutamine, and 100 units/mL penicillin/streptomycin before the live-cell imaging. Cells were treated with the etoposide or the caspase-3 inhibitor or TFF3(C^57Acm) or TFF3 homodimer in the presence of IncuCyte caspase-3/7 green apoptosis reagent. Data were acquired using an IncuCyte ZOOM instrument with standard scan type setting (4 images per well) every 2 h for 48 h.

[2] = tested on: human erythrocytes; assay: Hemolysis analysis; format: cell-based; conditions: 1 h, 37 °C, absorbance 405 nm, 0.2–25 μM final concentration, two independent experiments
From the text: Considering the therapeutic potential of TFF3, it was important to determine any cytotoxic and hemolytic effects early on to avoid problems in later stages of drug development. We therefore assessed cytotoxicity on HEK-293 cells and hemolytic effects in human erythrocytes. We treated the cells with TFF3(C^57Acm) and TFF3 homodimer and used resazurin, a blue dye that produces strong fluorescence when reduced by living cells, as the readout of the number of viable cells.[60] In the hemolytic assay, we evaluated hemoglobin release, an indicator of erythrocyte lysis, upon exposure to the peptides.
Monomeric and homodimeric TFF3 were serially diluted twofold in 0.9% NaCl and seeded (25 μL) in a 384-well polypropylene plate (0.2–25 μM final concentration). […] The cells were counted using a Neubauer hemocytometer and then diluted to 1 × 10^8/mL in 0.9% NaCl. […] Following incubation, the plates were centrifuged at 1000g for 10 min to pellet cells and debris and then 25 μL of the supernatant was transferred into a 384-well flat-bottom PS plate and absorbance (Abs) was read at 405 nm using a Tecan M1000 Pro monochromator plate reader. Percent hemolysis was calculated using the following equation: Hemolysis (%) = (Abssample – Absnegative/Abspositive – Absnegative) × 100. […]

[3] = molecular target: T1, LINGO2 (Homo sapiens, UniProt Q7L985); assay: BRET assay of LINGO2 dimerization in HEK-293 cells; format: cell-based; conditions: HEK-293 coexpressing LINGO2-YFP and LINGO2-Rluc; 0.1–10 μM peptide, 20 min incubation; coelenterazine 5 μM; n = 4
T1 construct: expressed in transfected cells; host or cells: HEK-293, transient transfection by the calcium phosphate method
T1 sequence (Q7L985 28-606) 1: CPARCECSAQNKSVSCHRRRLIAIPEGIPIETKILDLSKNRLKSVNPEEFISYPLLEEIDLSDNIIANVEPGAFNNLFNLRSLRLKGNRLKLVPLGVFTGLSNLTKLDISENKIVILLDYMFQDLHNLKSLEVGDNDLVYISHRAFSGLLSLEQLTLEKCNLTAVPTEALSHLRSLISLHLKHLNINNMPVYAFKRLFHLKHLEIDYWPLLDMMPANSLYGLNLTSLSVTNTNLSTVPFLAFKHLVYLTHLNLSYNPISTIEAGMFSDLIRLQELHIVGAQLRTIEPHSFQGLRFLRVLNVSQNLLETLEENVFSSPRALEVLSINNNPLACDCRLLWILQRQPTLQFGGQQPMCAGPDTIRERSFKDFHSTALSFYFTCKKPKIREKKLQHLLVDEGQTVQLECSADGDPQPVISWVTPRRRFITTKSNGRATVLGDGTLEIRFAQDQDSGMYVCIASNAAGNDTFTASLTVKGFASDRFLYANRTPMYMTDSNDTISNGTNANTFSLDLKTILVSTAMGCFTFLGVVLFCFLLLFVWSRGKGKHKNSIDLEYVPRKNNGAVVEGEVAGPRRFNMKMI
T1 sequence (Q7L985 28-606) 2: T1 sequence (Q7L985 28-606) 1
From the text: LINGO2 has also been put forward as a potential TFF3 receptor.[38] We thus evaluated whether TFF3(C^57Acm) or TFF3 homodimer could disturb LINGO2 dimerization via a bioluminescence resonance energy transfer (BRET) assay. This method allows the study of protein interactions using energy transfer between a light-emitting enzyme and a fluorescent acceptor protein.[65] LINGO2 fused with Renilla luciferase (Rluc; protein donor) or yellow fluorescent protein (YFP; protein acceptor) were co-expressed in HEK-293 cells and BRET signal detected after adding the luminescent substrate coelenterazine. […] We then evaluated whether the TFF3 constructs could promote changes of this basal BRET signal by inducing conformational change within the dimers and/or change the dimerization state of LINGO2.
HEK-293 cells were cultured with 10% FBS at 37 °C and 5% CO2 in DMEM for 72–96 h. […] Then, total luminescence was measured by following coelenterazine addition (final concentration 5 μM). BRET signal was measured in four repeats and calculated by determining the emission ratio at 530/480 nm on cells coexpressing donor and acceptor and by subtracting the emission background BRET signal ratio (530/480 nm) of cells expressing only donor protein, then multiplying by 1,000 to obtain results in millBRET units (mBU).

## CC[C@H](C)[C@@H]1NC(=O)[C@H](CCCNC(=N)N)NC(=O)[C@H](CO)NC(=O)[C@H](CC(=O)O)NC(=O)[C@H](Cc2ccccc2)NC(=O)[C@@H]2CSSC[C@H](NC(=O)[C@H](CCC(N)=O)NC(=O)[C@H](CC(N)=O)NC(=O)[C@H](C)NC(=O)[C@H](CO)NC(=O)[C@H](CC(C)C)NC(=O)CNC(=O)[C@@H](NC(=O)[C@H](Cc3ccc(O)cc3)NC(=O)[C@H](CCC(=O)O)NC(=O)[C@@H](N)CCC(=O)O)C(C)C)C(=O)N[C@@H](C)C(=O)N[C@@H](C(C)C)C(=O)N3CCC[C@H]3C(=O)N[C@@H](C)C(=O)N[C@@H](CCCCN)C(=O)N[C@@H](CC(=O)O)C(=O)N[C@@H](CCCNC(=N)N)C(=O)N[C@@H](C(C)C)C(=O)N[C@@H](CC(=O)O)C(=O)N[C@H]3CSSC[C@H](NC(=O)CNC(=O)[C@H](CCCNC(=N)N)NC(=O)[C@H](CC(N)=O)NC(=O)[C@H](CC(N)=O)NC(=O)[C@H](CSSC[C@@H](C(=O)N[C@@H](Cc4ccccc4)C(=O)N[C@@H](CCCCN)C(=O)N4CCC[C@H]4C(=O)N[C@@H](CC(C)C)C(=O)N[C@@H](CCC(N)=O)C(=O)N[C@@H](CCC(=O)O)C(=O)N[C@@H](C)C(=O)N[C@@H](CCC(=O)O)C(=O)N[C@@H](CSCNC(C)=O)C(=O)N[C@H](C(=O)N[C@@H](Cc4ccccc4)C(=O)O)[C@@H](C)O)NC(=O)[C@H](Cc4c[nH]c5ccccc45)NC(=O)[C@@H]4CCCN4C(=O)[C@H](C(C)C)NC(=O)CNC(=O)[C@@H]4CCCN4C1=O)NC(=O)[C@H](CCC(=O)O)NC(=O)[C@H](CCCCN)NC(=O)[C@@H]1CCCN1C(=O)[C@H]([C@@H](C)O)NC(=O)[C@H](C(C)C)NC(=O)[C@H](Cc1c[nH]cn1)NC(=O)[C@@H]1CCCN1C(=O)[C@H](Cc1ccc(O)cc1)NC(=O)CNC3=O)C(=O)N2 [TFF3(C^57Acm)]
[1]
  reduction of etoposide-induced cell death (caspase-3/7 active objects): statistically significant (p < 0.05) reduction in cell death
[2]
  concentration up to which no hemolytic effect was displayed: > 25 µM
[3]
  modification of LINGO2 BRET signal: no statistically significant (p > 0.05) modification of BRET signal
